Source: US20250099420A1, “SMALL MOLECULE MODULATORS OF GPR139 COMPLEX” (University of Florida Research Foundation, Incorporated, priority 2022, published 2025)
Where two headings read alike, the source gives them in different places.

Tests used:
parental HEK cells = assay: HEK parental Agonist Counterscreen Assay (non-transfected cells); format: cell-based; details: for Averaged Max % Response (±St. Dev.): activity relative to known control
Excerpt: The high control for the agonist counterscreen was Forskolin not acetylcholine.

GPR139 = target: T1, GPR139 (Homo sapiens, UniProt Q6DWJ6); assay: GPR139 Agonist titration / agonist counterscreen assay (calcium detection, HEK-GPR139 cells); format: cell-based; design: expressed in transfected cells; host or cells: HEK Aequorin cells, Maxcyte transient transfection; details: GPR139 Agonist Activity; for EC50: read-out: EC50; for Averaged Max % Response (±St. Dev.): activity relative to known control
T1 sequence (Q6DWJ6 1-353): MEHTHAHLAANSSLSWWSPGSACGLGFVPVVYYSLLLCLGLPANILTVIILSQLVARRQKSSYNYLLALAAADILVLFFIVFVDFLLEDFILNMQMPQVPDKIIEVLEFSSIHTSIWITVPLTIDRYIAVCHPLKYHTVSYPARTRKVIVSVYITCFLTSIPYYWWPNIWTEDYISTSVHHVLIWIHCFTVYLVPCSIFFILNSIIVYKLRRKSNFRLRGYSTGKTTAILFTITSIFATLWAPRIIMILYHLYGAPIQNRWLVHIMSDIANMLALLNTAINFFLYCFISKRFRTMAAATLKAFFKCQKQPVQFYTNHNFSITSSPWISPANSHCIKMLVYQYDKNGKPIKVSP
Protocol: GPR activity was assessed using a calcium detection assay. […] Negative control samples were treated with DMSO. […] Intracellular calcium was measured using Calcium 5.

[1] = Homo sapiens, HEK293, HEK Agonist Activity section of Table 4 (parental HEK counterscreen)
[2] = HEK Agonist Activity section of Table 4 (parental HEK counterscreen)
[3] = values printed in E-notation without unit
[4] = HEK Agonist Activity, parental non-transfected HEK cells
[5] = Homo sapiens, HEK293, HEK Agonist Activity, parental non-transfected HEK cells

Row | Compound | Lipophilic Efficiency (logD) (parental HEK cells; HEK Agonist Activity section) | Lipophilic Efficiency (logP) (parental HEK cells; HEK Agonist Activity section) | Averaged Max % Response (±St. Dev.) (parental HEK cells; HEK Agonist Activity section) | EC50 (parental HEK cells; [1]) | Averaged Max % Response (±St. Dev.) (GPR139) | Lipophilic Efficiency (logD) (GPR139; based on logD) | Lipophilic Efficiency (logP) (GPR139; based on logP) | Hill Slope (GPR139; fitted dose-response curve) | Efficiency Ligand (GPR139; ligand efficiency) | EC50 (GPR139; [3]) | further results
1 | CCOC(=O)C1CCN(C(=O)C2CC(Cc3cccc4ccccc34)=NO2)CC1 (centres unmarked) [SR-01000185621] | 1.69 | 1.69 | −9.62 ± 7.28% | > 14100 nM | 81.20 ± 9.68% | – | – | – | – | – | Efficiency Ligand (GPR139): 0.28; Hill Slope (GPR139): 0.84; Lipophilic Efficiency (logD) (GPR139): 2.73; Lipophilic Efficiency (logP) (GPR139): 2.73; EC50 (GPR139; HEK-GPR139 cells): 1300 nM
2 | O=C(C1CC(Cc2cccc3ccccc23)=NO1)N1CCC(C(O)Cc2ccccc2)CC1 (centres unmarked) [SR-01000185712] | 0.41 | 0.41 | 9.02 ± 5.86% | – | 110.27 ± 5.24% | 2.48 | 2.48 | 0.46 | 0.29 | 122 nM | EC50 (parental HEK cells; [2]): > 14100 nM
3 | Cc1nc(CNC(=O)CCC2(Cc3cccc4ccccc34)CCC(=O)N2)cs1 (centres unmarked) [SR-01000187393] | 2.44 | 2.44 | 6.35 ± 6.79% | > 14100 nM | 99.15 ± 6.04% | 4.29 | 4.29 | 0.44 | 0.32 | 196 nM | –
4 | O=C(NCc1csc(-c2cccs2)n1)C1CC(Cc2ccc3c(c2)OCO3)=NO1 (centres unmarked) [SR-01000187428] | 1.59 | 1.59 | 6.44 ± 5.26% | > 14100 nM | 99.03 ± 14.80% | 3.43 | 3.43 | 1.55 | 0.32 | 201 nM | –
5 | O=C(NC1CC1)C1CC(Cc2cccc3ccccc23)=NO1 (centres unmarked) [SR-01000188699] | 2.02 | 2.02 | 4.63 ± 6.30% | > 14100 nM | 112.57 ± 11.99% | 4.37 | 4.37 | 1.05 | 0.46 | 63.8 nM | –
6 | C=CCC(O)(CC=C)C(C)NC(=O)CCC1(Cc2ccc3ccccc3c2)CCC(=O)N1 (centres unmarked) [SR-01000190122] | 1.27 | 1.27 | 0.66 ± 6.28% | – | 134.89 ± 17.50% | 3.22 | 3.22 | 0.52 | 0.30 | 161 nM | EC50 (parental HEK cells; [2]): > 14100 nM
7 | CN(CCC(=O)NCC1Cc2cccc(-c3ccccn3)c2O1)C1CCS(=O)(=O)C1 (centres unmarked) [SR-01000193031] | 4.36 | 4.19 | 25.60 ± 3.67% | > 14100 nM | 95.01 ± 4.20% | – | – | – | – | – | Efficiency Ligand (GPR139): 0.30; Hill Slope (GPR139): 0.62; Lipophilic Efficiency (logD) (GPR139): 5.90; Lipophilic Efficiency (logP) (GPR139): 5.73; EC50 (GPR139; HEK-GPR139 cells): 406 nM
8 | COC(=O)C(CCSC)NC(=O)C1CC(Cc2ccc3c(c2)OCO3)=NO1 (centres unmarked) [SR-01000193756] | 3.01 | 3.01 | −12.55 ± 2.76% | – | 75.38 ± 12.05% | – | – | – | – | – | EC50 (parental HEK cells; [2]): > 14100 nM; Efficiency Ligand (GPR139): 0.30; Hill Slope (GPR139): 0.69; Lipophilic Efficiency (logD) (GPR139): 4.01; Lipophilic Efficiency (logP) (GPR139): 4.01; EC50 (GPR139; HEK-GPR139 cells): 1400 nM
9 | CC(NC(=O)Cn1cc(NC(=O)c2ccccc2F)cn1)c1ccccc1Cl (centres unmarked) [SR-01000194602] | – | – | – | – | 94.95 ± 1.55% | 4.44 | 4.44 | 0.71 | 0.39 | 19.1 nM | Lipophilic Efficiency (logD) (parental HEK cells; HEK Agonist Activity): 1.58; Lipophilic Efficiency (logP) (parental HEK cells; HEK Agonist Activity): 1.58; Averaged Max % Response (±St. Dev.) (parental HEK cells; HEK Agonist Activity): 4.93 ± 4.93%; EC50 (parental HEK cells; [4]): > 14100 nM
10 | O=C(c1ccccc1)C1CCCCC1S(=O)(=O)O (centres unmarked) [SR-01000197834] | 4.95 | 2.58 | 18.65 ± 10.85% | > 14100 nM | 95.96 ± 5.70% | 6.98 | 4.61 | 1.09 | 0.54 | 131 nM | –
11 | O=C(NNC(=O)C1CC1c1ccccc1)Nc1cccc(Cl)c1 (centres unmarked) [SR-01000202338] | – | – | – | – | 79.48 ± 15.63% | 4.84 | 4.84 | 1.63 | 0.48 | 11.6 nM | Lipophilic Efficiency (logD) (parental HEK cells; HEK Agonist Activity): 1.76; Lipophilic Efficiency (logP) (parental HEK cells; HEK Agonist Activity): 1.76; Averaged Max % Response (±St. Dev.) (parental HEK cells; HEK Agonist Activity): 4.74 ± 3.91%; EC50 (parental HEK cells; [5]): > 14100 nM
12 | COc1cccc(C(=O)NNC(=O)CCCOc2ccc(Cl)cc2Cl)c1 [SR-01000205482] | – | – | – | – | 120.13 ± 6.96% | 5.35 | 5.34 | – | 0.47 | – | Lipophilic Efficiency (logD) (parental HEK cells; HEK Agonist Activity): 1.53; Lipophilic Efficiency (logP) (parental HEK cells; HEK Agonist Activity): 1.52; Averaged Max % Response (±St. Dev.) (parental HEK cells; HEK Agonist Activity): −5.45 ± 10.43%; EC50 (parental HEK cells; [4]): > 14100 nM
13 | Cc1cccnc1CNC(=O)CCC1(Cc2cccc3ccccc23)CCC(=O)N1 (centres unmarked) [SR-01000207758] | 1.92 | 1.92 | 2.94 ± 8.83% | – | 124.78 ± 10.06% | 3.82 | 3.82 | 0.77 | 0.31 | 178 nM | EC50 (parental HEK cells; [2]): > 14100 nM
14 | Cc1cc(C)c(/C=C2/NC(=N)NC2=O)c(C)c1 [SR-01000218376] | 1.45 | 1.45 | 1.93 ± 7.79% | > 14100 nM | 76.44 ± 0.80% | 3.82 | 3.82 | 0.92 | 0.59 | 60.5 nM | –
15 | COc1ccc(NC(=O)NCCOc2cccc3ccccc23)cc1OC [SR-01000223498] | – | – | – | – | 115.59 ± 14.29% | 4.05 | 4.05 | 0.81 | 0.39 | 33.9 nM | Lipophilic Efficiency (logD) (parental HEK cells; HEK Agonist Activity): 1.43; Lipophilic Efficiency (logP) (parental HEK cells; HEK Agonist Activity): 1.43; Averaged Max % Response (±St. Dev.) (parental HEK cells; HEK Agonist Activity): 15.10 ± 2.28%; EC50 (parental HEK cells; [5]): > 14100 nM
16 | Cc1c(C(=O)NC(C)(C)CO)cnn1-c1ncc2c(n1)-c1ccccc1CC2 [SR-01000239973] | – | – | – | – | 105.15 ± 8.65% | 5.11 | 5.11 | 0.92 | 0.39 | 15.7 nM | Lipophilic Efficiency (logD) (parental HEK cells; HEK Agonist Activity): 2.16; Lipophilic Efficiency (logP) (parental HEK cells; HEK Agonist Activity): 2.16; Averaged Max % Response (±St. Dev.) (parental HEK cells; HEK Agonist Activity): −7.52 ± 3.99%; EC50 (parental HEK cells; [5]): > 14100 nM
17 | CCOc1ccc(C(=O)NCCc2ccc(F)cc2)cc1OCC [SR-01000243797] | 1.25 | 1.25 | 10.10 ± 12.81% | > 14100 nM | 105.74 ± 4.40% | 3.09 | 3.09 | 1.05 | 0.39 | 205 nM | –
18 | COC(=O)c1ccc(NC(=O)CNC(=O)C2CCCCC2)c(C)c1 [SR-01000246445] | 2.12 | 2.12 | 30.43 ± 4.82% | > 14100 nM | 77.11 ± 5.52% | – | – | – | – | – | Efficiency Ligand (GPR139): 0.36; Hill Slope (GPR139): 1.22; Lipophilic Efficiency (logD) (GPR139): 3.52; Lipophilic Efficiency (logP) (GPR139): 3.52; EC50 (GPR139; HEK-GPR139 cells): 554 nM
19 | CCOC(=O)c1ccc(NC(=O)Cn2c(C)c(C=O)c3ccccc32)cc1 [SR-01000248261] | 1.37 | 1.37 | 19.46 ± 6.76% | – | 81.40 ± 9.66% | – | – | – | – | – | EC50 (parental HEK cells; [2]): > 14100 nM; Efficiency Ligand (GPR139): 0.30; Hill Slope (GPR139): 1.06; Lipophilic Efficiency (logD) (GPR139): 2.28; Lipophilic Efficiency (logP) (GPR139): 2.28; EC50 (GPR139; HEK-GPR139 cells): 1700 nM
